The text below walks through data of patent US12383533B2 (Frost Biologic, Inc., priority 2014, dated 2025).

One experiment deals with A2780 cells. The experiment in a line: Cell Viability Assay (ATPlite 1step), A2780. The following applies: Homo sapiens, 72 hours; for percent inhibition of cell viability at 4 µM: A2780, 4 uM compound, read-out: Cell Viability % inhibition A2780 (4 uM Cpd); for percent inhibition of cell viability at 20 µM: A2780, 20 uM compound, read-out: Cell Viability % inhibition A2780 (20 uM Cpd). In kind it is cell-based. Summed up:
(§1)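 Cells seeded at 1000/well, grown 24 h at 37 °C/5% CO2, then exposed to compounds (DMSO stock diluted in media) for 72 h; viability read by ATPlite 1step luminescence. A2780 and PC3 in RPMI, MCF-7 in K-12F, each with 10% FBS.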
In general terms: In ATP-based viability assays light output follows the ATP content of the culture.

In the next experiment the test system is MCF-7 cells. The experiment in a line: Cell Viability Assay (ATPlite 1step), MCF-7. The format is cell-based. The following applies: Homo sapiens, MCF7, 72 hours; for percent inhibition of cell viability at 4 µM: MCF-7, 4 uM compound, read-out: Cell Viability % inhibition MCF-7 (4 uM Cpd); for percent inhibition of cell viability at 20 µM: MCF-7, 20 uM compound, read-out: Cell Viability % inhibition MCF-7 (20 uM Cpd). The protocol:
Cell Viability Assay Protocol
Cells were trypsinized, counted, and re-seeded into a 384-well tissue culture plate at 1000 cells per well in […] media. Cells were incubated at 37° C. in an atmosphere of 5% CO2 for 24 hours. Experimental compounds, initially dissolved in DMSO and diluted further in media were added to the wells and incubated for 72 hours. Cell viability was measured using the ATPlite 1step Luminescence Detection Assay system (Perkin Elmer) as described in the Assay kit instructions.
Cell Culture Lines and Media: (1) A2780 cells were cultured in RPMI media with 10% FBS and 1% antibiotics. Cells were typically split every 3-5 days at a 1:10 dilution; (2) PC3 cells were cultured in RPMI media with 10% FBS and 1% antibiotics. Cells were typically split every 3-5 days at a 1:4 dilution; (3) MCF-7 cells were grown in K-12F media with 10% FBS and 1% antibiotics. Cells were typically split every 3-5 days at a 1:10 dilution.

Another experiment concerns PC3 cells. The experiment in a line: Cell Viability Assay (ATPlite 1step), PC3. The format is cell-based. The following applies: Homo sapiens, PC-3, 72 hours; for percent inhibition of cell viability at 4 µM: PC3, 4 uM compound, read-out: Cell Viability % inhibition PC3 (4 uM Cpd); for percent inhibition of cell viability at 20 µM: PC3, 20 uM compound, read-out: Cell Viability % inhibition PC3 (20 uM Cpd). The essentials: as §1

In a further experiment the test system is porcine neuronal tubulin. The experiment in a line: Tubulin Polymerization Assay. In kind it is biochemical. The conditions noted are these: porcine tubulin 2.0 mg/ml, 37° C., fluorescence; read-out: IC50 (tubulin polymerization, from Vmax). The text has this:
Tubulin Polymerization Assay
The Tubulin Polymerization Assay uses porcine neuronal tubulin and measurements are based on fluorescence enhancement due to the incorporation of a fluorescent reporter into microtubules as polymerization occurs. The assay generates a polymerization curve representing the three phases of microtubule formation (nucleation, growth and equilibrium). IC50 values for tested compounds can be generated from the observed polymerization curves.
Procedure: All compounds dilutions (in DMSO) were prepared prior to the following steps. A Molecular Devices M2 plate reader was set to 37° C. Once the internal temperature of the plate reader reached 37° C. a 96 well plate (Corning Costar, at. #3686) was placed in the fluorimeter and allowed to warm to 37° C. for 30 minutes. A total of 10 mg of porcine tubulin was resuspended in […] of Polymerization Buffer [Buffer 1 (80 mM PIPES pH 6.9, 2.0 mM MgCl2, 0.5 mM EGTA, 1.0 mM GTP and 10 μM fluorescent reporter) supplemented with 20% glycerol] to generate a 2.0 mg/ml tubulin stock and this was kept on ice. The 50× compound stocks in 100% DMSO were spotted 1 μl/well in duplicate into the wells of the 96-well plate at 37° C. and allowed to re-warm for 5 minutes at 37° C. During this incubation the 2.0 mg/ml tubulin stock was placed in a disposable plastic trough and allowed to warm briefly at room temperature. To initiate the reaction, 50 μl/well of 2.0 mg/ml tubulin in Polymerization Buffer was added to each well using a multi-channel pipettor and the fluorescence measurements were started immediately.
The maximal velocity (Vmax) of tubulin polymerization was determined using linear regression of the averaged fluorescence data at each time point using GraphPad Prism 5.0 software. The Vmax determinations for each compound at each concentration were then normalized to reactions that contained DMSO (2% final concentration) but no test compounds. This converted the data to % Activity, which refers to the percent of the Vmax of an uninhibited reaction. The concentration response curves were then plotted as the % Activity versus the Log 10 of the compound concentration in micromolar and fit by non-linear regression to a 4-parameter sigmoidal dose-response equation using GraphPad Prism 5.0 software to determine the IC50 for each compound.

As a reminder, the IC50 is the midpoint of a concentration-inhibition curve. Consider `Cc1ncc(C(=O)Nc2ncc(-c3cccc(OC4CC4)c3)cc2F)cn1` [Compound 66, N-{5-[3-(cyclopropyloxy)phenyl]-3-fluoropyridin-2-yl}-2-methylpyrimidine-5-carboxamide], for which the percent inhibition of cell viability at 4 µM was 89% in the experiment with A2780 cells, 75% with MCF-7 cells and 66% in the experiment with PC3 cells. Moreover, the percent inhibition of cell viability at 20 µM in the experiment on A2780 cells worked out at 88.4%; in the experiment on MCF-7 cells, 76%; in the experiment with PC3 cells it was 70.6%. In addition, the IC50 in the experiment on porcine neuronal tubulin is 3840 nM.

For the compound `Cc1ncc(C(=O)Nc2ncc(-c3ccsc3)cc2F)cn1` [Compound 69, N-[3-fluoro-5-(thiophen-3-yl)pyridin-2-yl]-2-methylpyrimidine-5-carboxamide], the percent inhibition of cell viability at 4 µM in the experiment on A2780 cells was 84.7%; in the experiment on MCF-7 cells it was 56.2%; with PC3 cells it was 57.6%. Moreover, the values for the percent inhibition of cell viability at 20 µM with A2780 cells, in the experiment on MCF-7 cells and in the experiment with PC3 cells were 90.1%, 61.3% and 64.5%, respectively. Also, the IC50 in the experiment on porcine neuronal tubulin worked out at 2350 nM.

As for `Cc1ncc(C(=O)Nc2ccc(-c3cccc(S(=O)(=O)C4CC4)c3)c(C)n2)cn1` [Compound 64, N-{5-[3-(cyclopropylsulfonyl)phenyl]-6-methylpyridin-2-yl}-2-methylpyrimidine-5-carboxamide], the values for the percent inhibition of cell viability at 4 µM with A2780 cells, with MCF-7 cells and in the experiment with PC3 cells were 80%, 73.5% and 59.4%, respectively. For the same compound, the results for the percent inhibition of cell viability at 20 µM in the experiment on A2780 cells, with MCF-7 cells and in the experiment on PC3 cells were 81.5%, 74.5% and 62.7%, respectively. In addition, the IC50 in the experiment on porcine neuronal tubulin is 120 nM.

In the case of `Cc1ncc(C(=O)Nc2ncc(-c3cccc(C4CC4)c3)cc2F)cn1` [Compound 67, N-[5-(3-cyclopropylphenyl)-3-fluoropyridin-2-yl]-2-methylpyrimidine-5-carboxamide], the percent inhibition of cell viability at 4 µM in the experiment with A2780 cells was determined as 87.1%; in the experiment with MCF-7 cells it was 60%; with PC3 cells, 56%. Besides, the percent inhibition of cell viability at 20 µM in the experiment with A2780 cells was found to be 87.9%; with MCF-7 cells it was 63.7%; with PC3 cells, 61.6%. Moreover, in the experiment on porcine neuronal tubulin, the IC50 was 2420 nM.

Take `O=C(Nc1ccc(-c2cccc(Cl)c2)cn1)c1cncnc1` [Compound 3, N-[5-(3-chlorophenyl)pyridin-2-yl]pyrimidine-5-carboxamide]: the results for the percent inhibition of cell viability at 4 µM in the experiment with A2780 cells, in the experiment on MCF-7 cells and in the experiment with PC3 cells were 84.8%, 50.6% and 60.9%, respectively. For the same compound, the percent inhibition of cell viability at 20 µM in the experiment with A2780 cells was 90.2%; in the experiment with MCF-7 cells it was 56.8%; in the experiment with PC3 cells it was 68.3%. Moreover, the IC50 in the experiment on porcine neuronal tubulin is 1450 nM.

For the compound `Cc1ncc(C(=O)Nc2ccc(-c3ccsc3)cn2)cn1` [Compound 61, 2-methyl-N-[5-(thiophen-3-yl)pyridin-2-yl]pyrimidine-5-carboxamide], the percent inhibition of cell viability at 4 µM stood at 86.5% with A2780 cells, 73.3% in the experiment on MCF-7 cells and 58.3% in the experiment with PC3 cells. The values for the percent inhibition of cell viability at 20 µM with A2780 cells, with MCF-7 cells and in the experiment on PC3 cells were 89.7%, 72.9% and 70.6%, respectively. Moreover, in the experiment on porcine neuronal tubulin, the half-maximal inhibitory concentration (IC50) worked out at 260 nM.

As for `O=C(Nc1ccc(-c2cccc(C3CC3)c2)cn1)c1cncnc1` [Compound 16, N-[5-(3-cyclopropylphenyl)pyridin-2-yl]pyrimidine-5-carboxamide], the percent inhibition of cell viability at 4 µM in the experiment with A2780 cells turned out to be 90.4%; in the experiment with MCF-7 cells, 70.2%; in the experiment with PC3 cells, 73.7%. The percent inhibition of cell viability at 20 µM in the experiment with A2780 cells came out at 92.1%; in the experiment on MCF-7 cells it was 78.4%; with PC3 cells, 77.7%. In addition, the half-inhibitory concentration (IC50) with porcine neuronal tubulin turned out to be 480 nM.
